Experimental findings from ChEMBL document CHEMBL1148609, “Orally active purine-based inhibitors of the heat shock protein 90” (J Med Chem, 2006) are described below.

This assay deals with Heat shock protein HSP 90-alpha (Homo sapiens) (UniProt P07900). The assay is described as follows: Hsp90 inhibition measured as HER-2 degradation in MCF-7 cells.
`CCCCn1c(Cc2cc(OC)ccc2I)nc2c(N)ncnc21` displayed a half-inhibitory concentration (IC50) of 5000 nM.
Consider `CCCCn1c(Cc2cc(OC)ccc2Br)nc2c(N)ncnc21`, for which the IC50 came out at 8000 nM.
For the compound `CCC(CC)NCCCn1c(Sc2cc(OC)ccc2I)nc2c(N)ncnc21`, the IC50 was determined as 210 nM.
Then `CCC(C)NCCCn1c(Sc2cc(OC)ccc2I)nc2c(N)ncnc21` (stereo unspecified), with 210 nM; and `CCCCn1c(Sc2cc(OC)ccc2OC)nc2c(N)ncnc21`, with 3500 nM; and `C#CCCCn1c(Sc2cc(OC)ccc2I)nc2c(N)nc(F)nc21`, with 360 nM.
Then `COc1ccc(I)c(Sc2nc3c(N)ncnc3n2CCCNC(C)(C)C)c1`, with 140 nM; and `COc1ccc(I)c(Sc2nc3c(N)ncnc3n2CCCNC(C)C)c1`, with 180 nM.
Then `CCCCn1c(Cc2cc(OC)ccc2Cl)nc2c(N)ncnc21`, with 20000 nM; and `CCCCn1c(Cc2cc(OC)ccc2OC)nc2c(N)ncnc21`, with 12000 nM.
Compound `COc1ccc(I)c(Sc2nc3c(N)ncnc3n2CCC=C(C)C)c1` returned a half-inhibitory concentration (IC50) of 370 nM.

For orientation: IC50 means the concentration that gives 50% inhibition.
